Results published in paper PMC6017881, “Probing the Influence of Linker Length and Flexibility in the Design and Synthesis of New Trehalase Inhibitors” (Molecules : A Journal of Synthetic Chemistry and Natural …, 2018).
Entries after “also recorded” stand apart in the source; their conditions may differ. Where two headings read alike, the source gives them in different places.

How the values were obtained:
porcine kidney trehalase [1] = biological target: T1, porcine kidney trehalase (Sus scrofa, UniProt I3LIR5); experiment: Trehalase inhibition, coupled assay with glucose-6-phosphate dehydrogenase and hexokinase (dose-response); assay type: biochemical; conditions: 2.5 mM trehalose (close to Km), 30 °C; read-out: IC50 towards porcine trehalase
T1 construct: porcine kidney trehalase (purchased from Sigma-Aldrich); purchased Sigma-Aldrich; host or cells: porcine kidney
T1 sequence (I3LIR5 24-583): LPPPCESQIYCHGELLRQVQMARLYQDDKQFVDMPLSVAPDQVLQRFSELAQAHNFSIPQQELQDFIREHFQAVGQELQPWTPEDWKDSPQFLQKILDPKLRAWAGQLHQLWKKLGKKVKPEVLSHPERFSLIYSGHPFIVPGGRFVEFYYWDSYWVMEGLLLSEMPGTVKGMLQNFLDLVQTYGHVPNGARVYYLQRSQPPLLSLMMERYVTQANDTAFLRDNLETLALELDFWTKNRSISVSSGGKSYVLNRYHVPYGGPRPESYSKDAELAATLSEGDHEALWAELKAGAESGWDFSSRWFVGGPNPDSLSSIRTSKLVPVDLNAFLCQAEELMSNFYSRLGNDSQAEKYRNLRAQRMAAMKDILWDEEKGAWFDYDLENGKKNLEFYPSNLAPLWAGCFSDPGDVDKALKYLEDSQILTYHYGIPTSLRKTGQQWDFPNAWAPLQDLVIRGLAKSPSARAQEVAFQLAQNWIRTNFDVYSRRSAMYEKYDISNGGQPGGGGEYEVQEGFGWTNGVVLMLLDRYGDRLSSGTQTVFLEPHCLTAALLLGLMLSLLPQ
Protocol: (§1) Compounds were tested for their inhibitory activity against insect trehalase of midge larvae of C. riparius, a good model for biochemical studies, and porcine kidney trehalase (purchased from Sigma-Aldrich, St. Louis, MO, USA) as the mammalian counterpart.
(§2) Trehalase activity was measured through a coupled assay with glucose-6-phosphate dehydrogenase and hexokinase according to Wegener at al. To examine the potential of each compound as a trehalase inhibitor, dose-response curves were established to determine the IC50 values. Experiments were performed at a fixed substrate concentration close to the Km value (0.5 mM for C. riparius and 2.5 mM for porcine trehalase), in the presence of increasing inhibitor concentrations.Initial rates as a function of inhibitor concentration were fitted to the following equation:(1) vi/v=1/1+([I]/IC50)^n where vi and v are the initial rate in the presence and in the absence of inhibitor, respectively, [I] is the inhibitor concentration, IC50 is the inhibitor concentration producing half-maximal inhibition, and n is the Hill coefficient.
(§3) All enzyme assays were performed in triplicates at 30 °C by using sample volumes varying from 5 to 20 μL in 1 mL test and using a Cary3 UV/Vis Spectrophotometer. Enzyme activities were analyzed by Cary Win UV application software for Windows XP.

porcine kidney trehalase [2] = biological target: T1, porcine kidney trehalase; parameters: method as in PMID 25407551; conditions: value taken from the literature; ref [7]; read-out: IC50 towards porcine trehalase; cited from earlier work
C. riparius trehalase [3] = biological target: T2, C. riparius trehalase (Chironomus riparius, UniProt J7EJ73); experiment: Trehalase inhibition, coupled assay with glucose-6-phosphate dehydrogenase and hexokinase (dose-response); assay type: biochemical
Protocol: as §1, §2, §3

C. riparius trehalase [4] = biological target: T2, C. riparius trehalase; experiment: Inhibition kinetics at varying trehalose concentration (Lineweaver-Burk plot and replots); assay type: biochemical; conditions: varying trehalose concentration at two inhibitor concentrations
Protocol: To evaluate the inhibitory pattern we performed kinetics measurements by varying the trehalose concentration, at two different concentrations of compounds 9α and 9β.
Kinetic experiments were performed using C. riparius trehalase, measuring enzymatic activity at different trehalose concentrations from 0.05 to 20 mM in the presence of fixed inhibitor concentrations (5–10 µM for the compound 9α and 0.5–1 µM for the compound 9β). Kinetic parameters were calculated using a multiparameter, iterative, non-linear regression program based on the Marquardt-Levenberg algorithm (Sigma Plot, Jandel, CA, USA). Data are given ± S.D. of three independent experiments.
as §3

T2 sequence (J7EJ73 entry or part of it): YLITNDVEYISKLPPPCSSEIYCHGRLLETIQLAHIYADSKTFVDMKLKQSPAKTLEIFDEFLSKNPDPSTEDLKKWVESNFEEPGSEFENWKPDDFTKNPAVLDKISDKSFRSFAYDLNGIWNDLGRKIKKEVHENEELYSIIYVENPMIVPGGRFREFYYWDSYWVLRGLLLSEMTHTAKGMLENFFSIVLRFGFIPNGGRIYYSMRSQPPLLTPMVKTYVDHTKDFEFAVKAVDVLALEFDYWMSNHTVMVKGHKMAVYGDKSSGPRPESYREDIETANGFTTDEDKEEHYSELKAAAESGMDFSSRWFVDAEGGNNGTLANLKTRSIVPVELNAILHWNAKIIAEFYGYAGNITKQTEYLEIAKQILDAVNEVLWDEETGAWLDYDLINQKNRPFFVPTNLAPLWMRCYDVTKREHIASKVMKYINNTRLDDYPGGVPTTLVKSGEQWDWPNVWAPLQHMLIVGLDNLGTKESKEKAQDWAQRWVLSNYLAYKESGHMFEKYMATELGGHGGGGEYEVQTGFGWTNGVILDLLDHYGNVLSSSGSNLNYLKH

Row | Compound | IC50 (porcine kidney trehalase [1]) [µM] | IC50 (porcine kidney trehalase [2]) [µM] | Inhibitory activity towards C. riparius trehalase (in words) (C. riparius trehalase [3]) | also measured
1 | OC[C@@H]1[C@@H](O)[C@H](O)CN1CCOC1O[C@H](CO)[C@@H](O)[C@H](O)[C@H]1O (stereo partly drawn) [9α,β] | 7.67 ± 3.91 |  |  | 
2 | OC[C@@H]1[C@@H](O)[C@H](O)[C@H]2C[C@H](O)CN12 [Compound 7, 7-deoxy-uniflorine A] |  | > 1000 |  | 
3 | OC[C@@H]1[C@@H](O)[C@H](O)[C@H]2[C@H](O)[C@H](O)CN21 [Compound 6, (-)-uniflorine A] |  | > 1000 |  | 
4 | OCC1OC(OCCCN2CC(O)C(O)C2CO)C(O)C(O)C1O (stereo not drawn) [Compound 10] |  |  | loose completely their inhibitory properties; also recorded: completely inactive | 
5 | OC[C@@H]1[C@@H](O)[C@H](O)[C@H]2C[C@H](O[C@H]3O[C@H](CO)[C@@H](O)[C@H](O)[C@H]3O)CN12 [Compound 8, (1R,2R,3R,6S,7aR)-1,2-dihydroxy-3-(hydroxymethyl)hexahydro-1H-pyrrolizin-6-yl-α-hexopyranoside] | 191 ± 34.1 |  | active only in the μM range | 
6 | OC[C@@H]1[C@@H](O)[C@H](O)[C@H]2C[C@@H](O[C@H]3O[C@H](CO)[C@@H](O)[C@H](O)[C@H]3O)CN12 [Compound 4, 7-deoxycasuarine glucoside] |  | 0.479 ± 0.045 |  | 
7 | OC[C@@H]1[C@@H](O)[C@H](O)CN1CCO[C@@H]1O[C@H](CO)[C@@H](O)[C@H](O)[C@H]1O [Compound 9β] | 5.84 ± 0.26 |  |  | Inhibitory pattern (inhibition type) (C. riparius trehalase [4]): pure competitive
8 | OCC1OC(OCCCCN2CC(O)C(O)C2CO)C(O)C(O)C1O (stereo not drawn) [Compound 11] |  |  | loose completely their inhibitory properties; also recorded: completely inactive | 
9 | OC[C@@H]1[C@@H](O)[C@H](O)CN1CCO[C@H]1O[C@H](CO)[C@@H](O)[C@H](O)[C@H]1O [Compound 9α] | 27.6 ± 5.35 |  |  | Inhibitory pattern (inhibition type) (C. riparius trehalase [4]): pure competitive
